Values of other authors in patent US20170112856A1, “PHARMACEUTICAL COMPOSITION FOR TREATING CANCER IN AN INDIVIDUAL SUBJECT SUFFERING CANCER” (MA SHEN KAI RUEI CO., LTD., priority 2015, published 2017).

What was measured:
[1] = test system: murine macrophages RAW264.7; conditions: LPS-induction
[2] = test system: human colorectal cancer cells (COLO 205)
[3] = test system: normal intestinal epithelial cells (FHC cells)
[4] = test system: human HL60 leukemia cells

Row | Molecule | amount of free radicals of nitric oxide [1] | also measured
1 | 4-acetyl-Antroquinonol B [Composition 4-acetyl-AQB] | effectively reducing | 
2 | Cc1cc(O)c2c(c1O)OCO2 [2,3-(methylenedioxy)-6-methyl-benzene-1,4-diol] | effectively reducing | 
3 | COc1cc(C)c(O)c(OC)c1O [2,4-dimethoxy-6-methyl-benzene-1,3-diol] | effectively reducing | 
4 | COc1cc(C)c(OC)c2c1OCO2 [SY-1] |  | programmed death of cell ([2]; COLO 205, higher doses): induce programmed death of cell; cell cycle ([2]; COLO 205, lower doses): remain in the G0/G1 phase; impact on normal cells [3]: does not have an impact
5 | C=C(CC[C@@H](C)[C@H]1CC[C@H]2C3=C(C(=O)C[C@]12C)[C@@]1(C)CCC(=O)[C@@H](C)C1CC3=O)C(C)C(=O)O (stereo partly drawn) [Zhankuic acid A, 4 α-methylergost-8,24(28)-dien-3,7,11-trion-26-oic acid] |  | apoptosis [4]: inducing apoptosis
6 | Antroquinonol B [AQB] | effectively reducing | 
